Like-named read-outs stand apart in the source and are kept apart here.
Tests used:
METTL3/METTL14 = METTL3/METTL14 (Homo sapiens, UniProt Q86U44); test: METTL3-14 Standard Enzyme Assay (METTL3 biochemical assay)
Procedure: Assays were performed in a 25 μl-volume in 384-well V-bottom polypropylene microplates (Greiner Bio-One, cat. No. 781280) at ambient temperature. Optimized 1× assay buffer was 20 mM HEPES pH 7.5, 50 mM KCl, 250 μM MgCl2, 1 mM DTT, 0.01% Tween, 0.01% BSG, 0.004 U/μl RNAseOUT (cat. No. 10777019, ThermoFisher Scientific, Waltham, Mass.). For compound screening METTL3/METTL14 (final concentration, f.c.=2.5 nM) was added using a Multidrop Combi (ThermoFisher Scientific, Waltham, Mass.) and preincubated for 5 min. Reactions were started by adding 3′ biotinylated RNA ([…]-biotin) (f.c.=100 nM) and 3H-SAM (f.c.=100 nM) substrates. Reactions proceeded for 30 minutes and were quenched with excess non-radioactive SAM (f.c.=15 μM). The reactions were then transferred to streptavidin-coated flashplates and incubated for 2 hours at 25° C. Following two washing cycles with 0.1% Tween-20, the plates were sealed and read on a TopCount (PerkinElmer, Waltham, Mass.) plate-based scintillation counter. For determination of kinetic parameters, reaction times were optimized so that measurements were taken during the initial velocity phase of the reaction.

METTL1/WDR4 = METTL1/WDR4 (Homo sapiens, UniProt Q9UBP6); test: METTL1 Assay (METTL1 biochemical assay)
Chain of METTL1/WDR4 (Q9UBP6 whole entry, species assumed): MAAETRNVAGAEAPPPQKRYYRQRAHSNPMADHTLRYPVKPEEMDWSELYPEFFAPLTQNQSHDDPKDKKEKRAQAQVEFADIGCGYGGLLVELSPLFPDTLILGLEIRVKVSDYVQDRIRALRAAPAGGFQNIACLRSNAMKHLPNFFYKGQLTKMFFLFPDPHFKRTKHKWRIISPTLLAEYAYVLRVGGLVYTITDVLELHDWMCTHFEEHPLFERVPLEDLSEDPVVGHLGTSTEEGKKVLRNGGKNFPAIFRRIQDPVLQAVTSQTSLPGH
Chain of METTL1/WDR4 (P57081 whole entry partner, species assumed): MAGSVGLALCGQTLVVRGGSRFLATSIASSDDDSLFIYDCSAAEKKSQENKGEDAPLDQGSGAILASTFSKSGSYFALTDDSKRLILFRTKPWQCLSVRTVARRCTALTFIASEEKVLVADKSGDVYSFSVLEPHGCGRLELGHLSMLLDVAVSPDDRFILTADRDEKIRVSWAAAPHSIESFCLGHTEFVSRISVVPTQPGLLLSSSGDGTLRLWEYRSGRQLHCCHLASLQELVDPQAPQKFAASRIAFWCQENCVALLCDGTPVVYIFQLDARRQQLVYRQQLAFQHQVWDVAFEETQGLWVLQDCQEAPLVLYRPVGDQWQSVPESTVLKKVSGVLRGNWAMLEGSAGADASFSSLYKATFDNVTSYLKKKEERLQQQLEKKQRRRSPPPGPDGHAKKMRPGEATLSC
Procedure: Assays were performed in a 25 μl-volume in 384-well V-bottom polypropylene microplates (Greiner Bio-One, cat. No. 781280) at ambient temperature. Optimized 1× assay buffer was 20 mM HEPES pH 7.5, 50 mM KCl, 250 μM MgCl2, 1 mM DTT, 0.01% Tween, 0.01% BSG, 0.004 U/μl RNAseOUT (cat. No. 10777019, ThermoFisher Scientific, Waltham, Mass.). For compound screening METTL1/WDR4 (final concentration, f.c.=6.25 nM) was added using a Multidrop Combi (ThermoFisher Scientific, Waltham, Mass.) and preincubated for 5 min. Reactions were started by adding 3′ biotinylated RNA ([…]-biotin) (f.c.=25 nM) and 3H-SAM (f.c.=60 nM) substrates. Reactions proceeded for 20 minutes and were quenched with excess non-radioactive SAM (f.c.=15 μM). The reactions were then transferred to streptavidin-coated flashplates and incubated for 2 hours at 25° C. Following two washing cycles with 0.1% Tween-20, the plates were sealed and read on a TopCount (PerkinElmer, Waltham, Mass.) plate-based scintillation counter. For determination of kinetic parameters, reaction times were optimized so that measurements were taken during the initial velocity phase of the reaction.

PRMT5-MEP50 = PRMT5-MEP50 (Homo sapiens, UniProt O14744); test: PRMT5 Assay (PRMT5 biochemical assay)
Chain of PRMT5-MEP50 (O14744 whole entry): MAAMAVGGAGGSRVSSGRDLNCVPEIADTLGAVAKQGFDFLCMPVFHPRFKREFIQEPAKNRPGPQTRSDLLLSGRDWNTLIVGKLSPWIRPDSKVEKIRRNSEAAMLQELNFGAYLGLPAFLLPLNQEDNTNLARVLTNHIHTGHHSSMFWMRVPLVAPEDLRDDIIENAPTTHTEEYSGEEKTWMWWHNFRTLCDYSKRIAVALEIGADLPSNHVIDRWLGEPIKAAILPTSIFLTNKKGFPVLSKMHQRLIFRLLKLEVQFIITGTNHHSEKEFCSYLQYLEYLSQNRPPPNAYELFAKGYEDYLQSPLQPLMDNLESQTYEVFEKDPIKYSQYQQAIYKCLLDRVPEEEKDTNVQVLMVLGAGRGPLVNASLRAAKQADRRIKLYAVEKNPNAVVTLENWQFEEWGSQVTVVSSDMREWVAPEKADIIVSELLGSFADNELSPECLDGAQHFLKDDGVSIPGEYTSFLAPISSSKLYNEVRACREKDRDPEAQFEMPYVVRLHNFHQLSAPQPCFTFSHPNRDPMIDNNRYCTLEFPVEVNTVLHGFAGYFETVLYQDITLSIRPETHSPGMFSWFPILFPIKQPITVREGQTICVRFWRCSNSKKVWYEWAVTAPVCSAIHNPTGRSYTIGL
Chain of PRMT5-MEP50 (Q9BQA1 whole entry partner): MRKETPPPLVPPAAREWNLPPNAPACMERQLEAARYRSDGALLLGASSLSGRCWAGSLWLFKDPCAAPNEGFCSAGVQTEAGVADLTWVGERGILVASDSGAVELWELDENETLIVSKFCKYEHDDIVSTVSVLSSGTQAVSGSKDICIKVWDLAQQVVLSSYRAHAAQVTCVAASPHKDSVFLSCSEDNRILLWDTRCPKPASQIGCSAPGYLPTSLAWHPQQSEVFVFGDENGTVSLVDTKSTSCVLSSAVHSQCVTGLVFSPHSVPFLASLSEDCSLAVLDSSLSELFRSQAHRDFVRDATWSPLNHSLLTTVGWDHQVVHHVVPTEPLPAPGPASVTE
Procedure: Assays were performed in a 25 μl-volume in 384-well V-bottom polypropylene microplates (Greiner Bio-One, cat. No. 781280) at ambient temperature. Optimized 1× assay buffer was 20 mM Tris-HCl pH 8.0, 1 mM DTT, […]. For compound screening PRMT5-MEP50 (final concentration, f.c.=2.5 nM) was added using a Multidrop Combi (ThermoFisher Scientific, Waltham, Mass.) and preincubated for 5 min. Reactions were started by adding 3′ biotinylated histone H4 peptide acetylated on serine 1 (Ac-[…]-Biotin) (f.c.=100 nM) and 3H-SAM (f.c.=250 nM) substrates. Reactions proceeded for 60 minutes and were quenched with excess non-radioactive SAM (f.c.=15 μM). The reactions were then transferred to streptavidin-coated flashplates and incubated for 2 hours at 25° C. Following two washing cycles with 0.1% Tween-20, the plates were sealed and read on a TopCount (PerkinElmer, Waltham, Mass.) plate-based scintillation counter. For determination of kinetic parameters, reaction times were optimized so that measurements were taken during the initial velocity phase of the reaction.

[1] = METTL3 biochemical assay, read-out: METTL3 IC50
[2] = read-out: METTL1 IC50; METTL1 biochemical assay
[3] = PRMT5 biochemical assay, read-out: PRMT5 IC50
[4] = read-out: METTL3 IC50, METTL3 biochemical assay
[5] = METTL1 biochemical assay; read-out: METTL1 IC50
[6] = read-out: PRMT5 IC50, PRMT5 biochemical assay

Chain of METTL3/METTL14 (Q86U44 whole entry, species assumed): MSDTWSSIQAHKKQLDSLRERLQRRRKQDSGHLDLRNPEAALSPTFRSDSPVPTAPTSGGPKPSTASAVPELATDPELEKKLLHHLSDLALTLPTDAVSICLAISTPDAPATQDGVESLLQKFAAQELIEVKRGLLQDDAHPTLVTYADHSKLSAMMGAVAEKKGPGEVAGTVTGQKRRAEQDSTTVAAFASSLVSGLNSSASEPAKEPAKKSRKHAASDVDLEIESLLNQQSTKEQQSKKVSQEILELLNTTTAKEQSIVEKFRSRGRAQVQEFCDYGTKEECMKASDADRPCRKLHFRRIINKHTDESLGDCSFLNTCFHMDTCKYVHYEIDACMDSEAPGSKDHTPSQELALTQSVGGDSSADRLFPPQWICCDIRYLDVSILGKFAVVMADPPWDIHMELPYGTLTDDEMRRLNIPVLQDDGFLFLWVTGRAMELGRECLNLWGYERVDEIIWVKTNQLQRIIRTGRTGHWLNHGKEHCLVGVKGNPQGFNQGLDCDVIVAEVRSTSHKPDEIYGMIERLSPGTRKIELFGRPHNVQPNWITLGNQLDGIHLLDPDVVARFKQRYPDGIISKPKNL
Chain of METTL3/METTL14 (Q9HCE5 whole entry partner, species assumed): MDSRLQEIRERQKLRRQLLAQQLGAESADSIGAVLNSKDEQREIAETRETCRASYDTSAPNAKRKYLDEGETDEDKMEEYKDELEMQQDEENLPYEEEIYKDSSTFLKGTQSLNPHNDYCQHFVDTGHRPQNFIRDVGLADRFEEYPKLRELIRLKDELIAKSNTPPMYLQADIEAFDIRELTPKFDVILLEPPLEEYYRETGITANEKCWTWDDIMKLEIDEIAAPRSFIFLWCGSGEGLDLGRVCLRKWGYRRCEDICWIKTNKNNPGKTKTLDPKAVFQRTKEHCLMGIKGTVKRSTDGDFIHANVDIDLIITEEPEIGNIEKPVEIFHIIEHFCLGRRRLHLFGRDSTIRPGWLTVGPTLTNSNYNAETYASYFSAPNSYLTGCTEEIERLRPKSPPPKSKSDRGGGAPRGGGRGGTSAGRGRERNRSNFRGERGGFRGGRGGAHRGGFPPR

Nc1cc2cc(CC[C@H]3C[C@@H](n4ccc5c(N)ncnc54)[C@H](O)[C@@H]3O)ccc2cn1 [I-100]
IC50 (METTL3/METTL14; [1]): > 1 µM | IC50 (METTL1/WDR4; [2]): > 1 µM | IC50 (PRMT5-MEP50; [3]): 0.01 to 0.1 µM

Nc1ccc2ccc(CC[C@H]3C[C@@H](n4cc([C@@H]5CCOC5)c5c(N)ncnc54)[C@H](O)[C@@H]3O)cc2n1 [I-49]
IC50 (METTL3/METTL14; [1]): 0.1 to 1 µM | IC50 (METTL1/WDR4; [2]): > 1 µM | IC50 (PRMT5-MEP50; [3]): < 0.01 µM

CCCc1cn([C@@H]2C[C@H](CCc3ccc4ccc(N)nc4c3)[C@@H](O)[C@H]2O)c2ncnc(N)c12 [I-62]
IC50 (METTL3/METTL14; [1]): 0.1 to 1 µM | IC50 (METTL1/WDR4; [2]): > 1 µM | IC50 (PRMT5-MEP50; [3]): < 0.01 µM

CCc1cc(N)c2ccc(OC[C@H]3O[C@@H](n4cc(-c5ccn(C)n5)c5c(N)ncnc54)[C@@H](F)[C@@H]3O)cc2n1 [I-145]
IC50 (METTL3/METTL14; [4]): < 0.01 µM | IC50 (METTL1/WDR4; [5]): > 1 µM | IC50 (PRMT5-MEP50; [6]): 0.1 to 1 µM

CCCC(=O)c1cn([C@@H]2O[C@H](COc3ccc4ccc(NC)nc4c3)[C@@H](O)[C@@H]2F)c2ncnc(N)c12 [I-146]
IC50 (METTL3/METTL14; [4]): 0.01 to 0.1 µM | IC50 (METTL1/WDR4; [5]): > 1 µM | IC50 (PRMT5-MEP50; [6]): > 1 µM

Cc1cn([C@@H]2O[C@H](COc3ccc4ccc(NCC5CC5)nc4c3)[C@@H](O)[C@H]2O)c2ncnc(N)c12 [I-20]
IC50 (METTL3/METTL14; [1]): > 1 µM | IC50 (METTL1/WDR4; [2]): > 1 µM | IC50 (PRMT5-MEP50; [3]): 0.1 to 1 µM

CNc1ccc2ccc(CC[C@H]3C[C@@H](n4cc(C5CCOCC5)c5c(N)ncnc54)[C@H](O)[C@@H]3O)cc2n1 [I-58]
IC50 (METTL3/METTL14; [1]): 0.01 to 0.1 µM | IC50 (METTL1/WDR4; [2]): > 1 µM | IC50 (PRMT5-MEP50; [3]): < 0.01 µM

Nc1ncnc2c1ccn2[C@@H]1C[C@H](CCc2ccc3cccnc3n2)[C@@H](O)[C@H]1O [I-128]
IC50 (METTL3/METTL14; [1]): > 1 µM | IC50 (METTL1/WDR4; [2]): > 1 µM | IC50 (PRMT5-MEP50; [3]): < 0.01 µM

Nc1ncnc2c1ccn2[C@@H]1C[C@H](CCc2ccc3ccc(NCC4CC4)nc3c2)[C@@H](O)[C@H]1O [I-132]
IC50 (METTL1/WDR4; [5]): > 1 µM | IC50 (PRMT5-MEP50; [3]): < 0.01 µM

Nc1ncnc2c1ccn2[C@@H]1C[C@H](CCc2ccc3cccnc3c2)[C@@H](O)[C@H]1O [I-133]
IC50 (METTL1/WDR4; [5]): > 1 µM | IC50 (PRMT5-MEP50; [3]): < 0.01 µM

Nc1ncnc2c1ccn2[C@@H]1O[C@H](COc2ccc3ccc(N[C@H]4C[C@@H](N)C4)nc3c2)[C@@H](O)[C@@H]1F [I-204]
IC50 (METTL3/METTL14; [1]): 0.1 to 1 µM | IC50 (PRMT5-MEP50; [3]): 0.1 to 1 µM

CNc1nc2cc(OC[C@H]3O[C@@H](n4cc(-c5ccn(C)n5)c5c(N)ncnc54)[C@@H](F)[C@@H]3O)ccc2s1 [I-176]
IC50 (METTL3/METTL14): 0.1 to 1 µM | IC50 (PRMT5-MEP50): > 1 µM

Cn1ccc(-c2cn([C@@H]3O[C@H](COc4ccc5ccc(C(=O)N6CCC6)nc5c4)[C@@H](O)[C@@H]3F)c3ncnc(N)c23)n1 [I-203]
IC50 (METTL3/METTL14): > 1 µM | IC50 (PRMT5-MEP50): > 1 µM

Nc1ccc2ccc(CC[C@H]3C[C@@H](n4ccc5c(NCCc6ccccc6)ncnc54)[C@H](O)[C@@H]3O)cc2n1 [I-134]
IC50 (METTL1/WDR4; [2]): > 1 µM | IC50 (PRMT5-MEP50; [3]): < 0.01 µM

Cn1ccc(-c2cn([C@@H]3O[C@H](COc4ccc5ccc(N[C@H]6C[C@H](N)C6)nc5c4)[C@@H](O)[C@@H]3F)c3ncnc(N)c23)n1 [I-197]
IC50 (METTL3/METTL14): 0.01 to 0.1 µM | IC50 (PRMT5-MEP50): 0.1 to 1 µM

Nc1ncnc2c1c(-n1cccn1)cn2C1CC(CCc2ccc3ccc(NC4CCC4)nc3c2)C(O)C1F (stereo not shown) [I-235]
IC50 (METTL3/METTL14): 0.1 to 1 µM | IC50 (PRMT5-MEP50): 0.01 to 0.1 µM

Cn1ccc(-c2cn([C@@H]3O[C@H](COc4ccc5sc(N6CCC6)nc5c4)[C@@H](O)[C@@H]3F)c3ncnc(N)c23)n1 [I-177]
IC50 (METTL3/METTL14): 0.01 to 0.1 µM | IC50 (PRMT5-MEP50): > 1 µM

Cn1ccc(-c2cn([C@@H]3O[C@H](COc4ccc5ncc(N6CCC6)nc5c4)[C@@H](O)[C@@H]3F)c3ncnc(N)c23)n1 [I-189]
IC50 (METTL3/METTL14): 0.01 to 0.1 µM | IC50 (PRMT5-MEP50): > 1 µM

CC1(C)COC(c2cn([C@@H]3O[C@H](COc4ccc5ccc(N6CCC6)nc5c4)[C@@H](O)[C@@H]3F)c3ncnc(N)c23)=N1 [I-213]
IC50 (METTL3/METTL14; [1]): < 0.01 µM | IC50 (PRMT5-MEP50; [3]): > 1 µM

Cn1ccc(-c2cn([C@@H]3O[C@H](COc4ccc5ccc(NC6CNC6)nc5c4)[C@@H](O)[C@@H]3F)c3ncnc(N)c23)n1 [I-196]
IC50 (METTL3/METTL14): 0.1 to 1 µM | IC50 (PRMT5-MEP50): > 1 µM

CCCNc1ccc2ccc(CC[C@H]3C[C@@H](n4ccc5c(N)ncnc54)[C@H](O)[C@@H]3O)cc2n1 [I-120]
IC50 (METTL1/WDR4; [2]): > 1 µM | IC50 (PRMT5-MEP50; [3]): < 0.01 µM

CN(C)Cc1cn([C@@H]2O[C@H](COc3ccc4ccc(N5CCC5)nc4c3)[C@@H](O)[C@@H]2F)c2ncnc(N)c12 [I-214]
IC50 (METTL3/METTL14; [1]): < 0.01 µM | IC50 (PRMT5-MEP50; [3]): > 1 µM

Cn1ccc(-c2cn([C@@H]3O[C@H](COc4ccc5ccc(N[C@H]6C[C@@H](N)C6)nc5c4)[C@@H](O)[C@@H]3F)c3ncnc(N)c23)n1 [I-201]
IC50 (METTL3/METTL14): 0.01 to 0.1 µM | IC50 (PRMT5-MEP50): 0.1 to 1 µM

Nc1ncnc2c1ccn2[C@@H]1C[C@H](CCc2ccc3cc(Br)cnc3c2)[C@@H](O)[C@H]1O [I-137]
IC50 (METTL1/WDR4; [2]): > 1 µM | IC50 (PRMT5-MEP50; [3]): < 0.01 µM

Nc1ncnc2c1ccn2[C@@H]1O[C@H](COc2ccc3ccc(NC4CCC4)nc3c2)[C@@H](O)[C@@H]1F [I-185]
IC50 (METTL3/METTL14; [1]): < 0.01 µM | IC50 (PRMT5-MEP50; [3]): > 1 µM

Nc1ncnc2c1ccn2[C@@H]1C[C@H](CCc2ccc3ccccc3c2)[C@@H](O)[C@H]1O [I-136]
IC50 (METTL1/WDR4; [2]): > 1 µM | IC50 (PRMT5-MEP50; [3]): > 1 µM

CN(CCS(C)(=O)=O)c1ccc2ccc(OC[C@H]3O[C@@H](n4cc(-c5ccn(C)n5)c5c(N)ncnc54)[C@@H](F)[C@@H]3O)cc2n1 [I-166]
IC50 (METTL3/METTL14): 0.1 to 1 µM | IC50 (PRMT5-MEP50): > 1 µM

CNc1ccc2sc(CC[C@H]3O[C@@H](n4ccc5c(N)ncnc54)[C@@H](F)[C@@H]3O)cc2n1 [I-193]
IC50 (METTL3/METTL14; [1]): 0.01 to 0.1 µM | IC50 (PRMT5-MEP50; [3]): 0.01 to 0.1 µM

CNc1nc2cc(OC[C@H]3O[C@@H](n4cc(-c5ccn(C)n5)c5c(N)ncnc54)[C@@H](F)[C@@H]3O)ccc2[nH]1 [I-208]
IC50 (METTL3/METTL14): < 0.01 µM | IC50 (PRMT5-MEP50): 0.1 to 1 µM

Nc1ncnc2c1ccn2[C@@H]1C[C@H](CCc2ccc3ccncc3c2)[C@@H](O)[C@H]1O [I-131]
IC50 (METTL1/WDR4; [2]): > 1 µM | IC50 (PRMT5-MEP50; [3]): 0.01 to 0.1 µM

Nc1ncnc2c1ccn2[C@H]1C[C@H](O)[C@@H](CCc2ccc3ccc(N4CCC4)nc3c2)O1 [I-198]
IC50 (METTL3/METTL14; [1]): 0.01 to 0.1 µM | IC50 (PRMT5-MEP50; [3]): > 1 µM

CN(C)C(=O)c1cn([C@@H]2O[C@H](COc3ccc4ccc(N5CCC5)nc4c3)[C@@H](O)[C@@H]2F)c2ncnc(N)c12 [I-216]
IC50 (METTL3/METTL14): 0.01 to 0.1 µM | IC50 (PRMT5-MEP50): 0.1 to 1 µM

Cc1cn([C@@H]2C[C@H](CCc3ccc4ccc(N)nc4c3)[C@@H](O)[C@H]2O)c2ncnc(N)c12 [I-66]
IC50 (METTL1/WDR4; [2]): > 1 µM | IC50 (PRMT5-MEP50; [3]): < 0.01 µM

CCc1nc2cc(OC[C@H]3O[C@@H](n4cc(-c5ccn(C)n5)c5c(N)ncnc54)[C@@H](F)[C@@H]3O)ccc2[nH]1 [I-172]
IC50 (METTL3/METTL14): 0.1 to 1 µM | IC50 (PRMT5-MEP50): > 1 µM

— patent publication US20230027361A1, “METTL3 MODULATORS” (priority 2019, published 2023)
